Results: US11198705B2, “Hybrid Amphotericin B derivatives with reduced toxicity” (priority 2018, dated 2021)
Converted amounts (≈) assume the structure as drawn. Where two headings read alike, the source gives them in different places.

Tests used:
[1] = system: four strains of clinically relevant Candida species and four challenging strains of A. fumigatus; experiment: In vitro antifungal activity, four Candida strains and four A. fumigatus strains (FIG. 11D); format: cell-based; settings: Aspergillus fumigatus, read-out: Mean MIC
Excerpt: (§1) Both AmBAU and AmBTACBU was further tested and compared to AmB against four strains of clinically relevant Candida species and four challenging strains of A. fumigatus (FIG. 11D).

[2] = system: primary human renal epithelial cells (hREC)
Excerpt: As a complementary parallel first step in the screening funnel, the MTC's of all new derivatives will be evaluated against hREC using a WST-8 cell proliferation assay kit as previously described above. The MTC will be determined by calculating the mean of at least two biological replicates.

C. albicans [3] = experiment: MIC against C. albicans with and without pre-complexation with ergosterol; format: cell-based; settings: sponge pre-complexed with ergosterol
Excerpt: Anderson, T. M. et al., Nat Chem Biol 2014, 10 (5), 400-6. […] Davis, S. A., et al., Nat Chem Biol 2015, 11 (7), 481-7. To test whether C2′epiAmB primarily kills cells via the same sterol sponge mechanism, the C2′epiAmB sponge was similarly pre-complexed with ergosterol (FIG. 9). […] Thus, C2′epiAmB similarly kills yeast primarily via sterol binding, and, by extension, the new compounds targeted in this application are expected to have a similar barrier to fungal resistance that has been observed for the past 50+ years with AmB.

[4] = system: panel of clinical isolates; experiment: In vitro antifungal activity, panel of clinical isolates (FIG. 11B); format: cell-based; settings: read-out: Mean MIC
Excerpt: Burke, Andes, and Lindquist reported in 2015 a series of AmB derivatives in which the C16 acid is replaced with a urea motif via a scalable 3-step synthesis from AmB (FIG. 11A). Davis, S. A., et al., Nat Chem Biol 2015, 11 (7), 481-7. AmBUreas were studied at REVOLUTION Medicines, a biotech company for which Burke is a Founder and Consultant and Steinbach served on the Clinical Advisory Board.
as §1

invasive candidiasis = experiment: Murine model of invasive candidiasis, intraperitoneal AmBUreas (FIG. 12); format: in vivo, mice
Protocol: (§2) To enable a head-to-head comparison with the AmB urea derivatives, AmB was delivered as a non-deoxycholate complex. […] These AmBUreas were also tested via intravenous administration in a similar model at EvoTec (Oxfordshire, UK), and their activities were compared directly with IV AmB-deoxycholate (Fungizone®) and liposomal AmB (AmBisome®) (FIG. 13).

[5] = format: binding; settings: for binding to ergosterol: UV-Vis/PCA sponge-sterol titration
Excerpt: (§3) However, an alternative method was developed for reproducible formation of homogenous AmB and C2′epiAmB sterol sponge aggregates in vitro. Using these preparations, a quantitative UV-Vis and Principle Component (PCA) based assay for determining the apparent KDS for the binding of AmB and C2′epiAmB to ergosterol and cholesterol (FIGS. 5A-D) was developed.
(§4) Biophysical studies support the conclusion that different capacities to bind cholesterol underlie these striking differences in toxicity for the AmBUreas versus C2′epiAmB (FIG. 15). Isothermal titration calorimetry is unable to distinguish between cholesterol binding in these two series. However, a more sensitive and quantitative UV-Vis/PCA based sponge-sterol titration experiments described above (see Example 1) was employed to quantify the binding of a representative AmB urea (AmBAU) to ergosterol and cholesterol. […] It was reasoned that the lack of cholesterol binding in C2′epiAmB to a ligand-selective allosteric effect was caused by epimerization of the C2′stereocenter (see Example 1), and thus predict that the biophysical effects associated with C2′-epimerization should be transposable to other AmB derivatives.

Scedosporium prolificans = experiment: In vitro antifungal activity against Scedosporium prolificans; format: cell-based; settings: recalcitrant strain
Excerpt: (§5) Steinbach and Burke recently collaborated to further compare the activity of a series of AmBUreas (AmBAU, AmBMU, and AmBCU) with AmBisome®, C2′epiAmB, caspofungin, and voriconazole against a wide range of clinically relevant pathogens, including AmB-resistant Scedosporium strains (FIG. 11C).

[6] = IV toxicity in mice (mortality); format: in vivo
[7] = IV toxicity in rats (BUN, ALT/AST, mortality)
candidiasis = experiment: Candidiasis mouse model, intravenous administration (EvoTec, FIG. 13); format: in vivo, mice
Protocol: as §2

[8] = PK/PD properties in mice, rats and dogs (FIG. 14); format: in vivo; settings: rats, dogs
[9] = system: wide range of clinically relevant pathogens; experiment: In vitro antifungal activity, wide range of clinically relevant pathogens (FIG. 11C); format: cell-based; settings: across a wide range of pathogens
Excerpt: as §5

human red blood cells = format: cell-based
[10] = UV-Vis/PCA sterol sponge titration, cholesterol; format: binding
Excerpt: as §3, §4

yeast = experiment: Activity against yeast / cell killing (FIG. 2); format: cell-based
Excerpt: (§6) This key discovery opened a path to the rational development of a non-toxic AmB variant. To probe its predicted role in sterol binding, the hydroxyl group was synthetically deleted at the C2′ position on the mycosamine appendage. […] Consistent with the sterol sponge model, this derivative retained good activity against yeast but, most importantly, was nontoxic to human red blood cells and primary (hREC) (FIG. 2B).
(§7) A practical 11-step synthesis of C2′epiAmB using a frontier site-selective acylation method was developed (FIG. 4). Wilcock, B. C. et al., Nat Chem 2012, 4 (12), 996-1003; Uno, B. E. A synthesis enabled understanding of Amphotericin B leading to derivatives with improved therapeutic indices. University of Illinois at Urbana-Champaign, 2014. The sterol binding and cell killing activities was then determined.

[11] = Isothermal titration calorimetry (ITC) sterol binding, ergosterol; settings: within detection limits of ITC
Excerpt: as §6, §7

[12] = Isothermal titration calorimetry (ITC) sterol binding, cholesterol; settings: within detection limits of ITC
Excerpt: as §6, §7

[13] = system: A. fumigatus 91, A. fumigatus 1100; experiment: MIC against A. fumigatus 91 and A. fumigatus 1100; format: cell-based
Excerpt: The results with C2′epiAmBAU strongly support the prediction that C16 modifications will show improved potency compared to C2′epiAmB. […] Thus, it is expected that hybridizations of C2′epiAmB with other urea side chains will yield similar increases in potency without any mammalian toxicity. If this proves not to be the case, other classes of C16 modifications that also increase potency will be pursed. […] Alternative modifications may be pursed at the mycosamine appendage that the modelling predicts should similarly eliminate the water-bridged C2′OH to C13OH hydrogen bond, e.g., C2′deoxygenation, C2′-halodeoxygenation, or C2′-methyldeoxygenation, and thus eliminate cholesterol binding (see FIGS. 3A and 3B). This study anticipates high doses of non-toxic C2′epiAmBUreas will yield a significant reduction in fungal burden and therefore an increase in survival in QD dosing efficacy studies relative to AmB-deoxycholate (Fungizone®), AmBisome®, C2′epiAmB, voriconazole, and caspofungin.

[14] = system: Candida and Aspergillus clinical isolates; experiment: In vitro antifungal activity, Candida and Aspergillus clinical isolates (Evotec); format: cell-based; settings: many Candida and several Aspergillus strains
[15] = system: clinically relevant invasive molds; experiment: In vitro antifungal activity, panel of clinically relevant invasive molds (FIG. 8C); format: cell-based; settings: many strains, including pan-azole resistant strain F14196
[16] = system: series of important pathogens (Candida and Aspergillus strains); experiment: In vitro antifungal activity of C2′epiAmBAU hybrid vs AmB, C2′epiAmB and AmBAU (FIG. 18); format: cell-based; settings: A. fumigatus 91, A. fumigatus 1163, and A. fumigatus 1100
Excerpt: In a key result, synthesis on small scale was accomplished on the first targeted hybrid derivative, C2′epiAmBAU, as per FIG. 17 confirming the feasibility of the route to these natural product analogs. The initial biological analysis of this first C2′epiAmBUrea derivative was very encouraging since a substantial increase in antifungal potency for C2′epiAmBAU relative to C2′epiAmB was observed (FIG. 18).

A. fumigatus = experiment: In vitro antifungal activity, A. fumigatus strains (Evotec); format: cell-based
C. albicans [17] = experiment: Murine model of invasive candidiasis, single IP injection (FIG. 10); format: in vivo, neutropenic ICR/Swiss mice
Excerpt: Andes, D. et al., Antimicrobial agents and chemotherapy 2001, 45 (3), 922-6. […] Wiederhold, N. P. et al., Antimicrobial agents and chemotherapy 2006, 50 (2), 469-73.

[18] = system: 40 Aspergillus clinical isolates, including azole-resistant A. fumigatus, A. flavus, and A. terreus; experiment: Antifungal testing, extended panel of 40 Aspergillus clinical isolates (Fungus Testing Laboratory, UT-San Antonio); format: cell-based

C[C@@H]1[C@H](O)[C@@H](C)/C=C/C=C/C=C/C=C/C=C/C=C/C=C/[C@H](O[C@@H]2O[C@H](C)[C@@H](O)[C@H](N)[C@@H]2O)C[C@@H]2O[C@](O)(C[C@@H](O)C[C@@H](O)[C@H](O)CC[C@@H](O)C[C@@H](O)CC(=O)O[C@H]1C)C[C@H](O)[C@H]2C(=O)O [AmB, Amphotericin B]
MIC [1]: 1.33 µM (≈ 1.23 µg/mL)
minimum toxic concentration (MTC) against primary hRECs ([2]; human): 2.4 µM
minimum toxic concentration (MTC) in hREC, preliminary analysis ([2]; human): 2 to 4 µM
change in potency upon ergosterol pre-complexation (C. albicans [3]): same reduction in potency
MIC [4]: 1.23 µM (≈ 1.14 µg/mL)
dose-response (invasive candidiasis; AmB delivered as a non-deoxycholate complex): atypical lack of dose-response
Kd [5]: 120 nM

C[C@@H]1[C@H](O)[C@@H](C)/C=C/C=C/C=C/C=C/C=C/C=C/C=C/C(OC2O[C@H](C)[C@@H](O)[C@H](N)[C@@H]2O)C[C@@H]2O[C@](O)(C[C@@H](O)C[C@@H](O)[C@H](O)CC[C@@H](O)C[C@@H](O)CC(=O)O[C@H]1C)C[C@H](O)[C@H]2NC(=O)NCCN (stereo partly drawn) [AmBAU]
activity against Scedosporium prolificans (Scedosporium prolificans): active
MIC ([1]; FIG. 11D, four Candida and four A. fumigatus strains): 0.5 µM (≈ 0.491 µg/mL)
dose at which death was observed ([6]; IV, mice): 32 mg/kg
toxicity in rats ([7]; 6 mg/kg): significant toxicity
minimum toxic concentration (MTC) against primary hRECs [2]: 11.3 µM
kidney fungal burden (candidiasis; 1 mg/kg, within the limits of assay detection): sterilization in multiple mice
kidney fungal burden (candidiasis; 16 mg/kg): complete sterilization
PK/PD properties [8]: favorable PK/PD properties
antifungal potency [9]: excellent potency
concentration failing to fully lyse red blood cells (human red blood cells; highest concentrations tested): > 500 µM
efficacy (invasive candidiasis; administered intraperitoneally): exceptionally effective
binding to ergosterol [5]: confirmed to bind
binding to cholesterol [10]: confirmed to bind

CNC(=O)N[C@H]1[C@@H]2CC(OC3O[C@H](C)[C@@H](O)[C@H](N)[C@@H]3O)/C=C/C=C/C=C/C=C/C=C/C=C/C=C/[C@H](C)[C@@H](O)[C@@H](C)[C@H](C)OC(=O)C[C@H](O)C[C@H](O)CC[C@@H](O)[C@H](O)C[C@H](O)C[C@](O)(C[C@@H]1O)O2 (stereo partly drawn) [AmBMU]
toxicity in rats ([7]; 6 mg/kg): significant toxicity
minimum toxic concentration (MTC) against primary hRECs ([2]; human): 44.4 µM
binding to cholesterol [10]: retains the capacity to bind cholesterol

CC1C=CC=CC=CC=CC=CC=CC=CC(OC2CC(N)C(O)C(C)O2)CC2OC(O)(CC(O)CC(O)C(O)CCC(O)CC(O)CC(=O)OC(C)C(C)C1O)CC(O)C2C(=O)O (stereo not drawn) [C2′deOAmB, reference compound]
toxicity to primary hREC [2]: nontoxic
activity against yeast (yeast): good activity
toxicity to human red blood cells (human red blood cells): nontoxic
binding of ergosterol by ITC [11]: bind ergosterol
binding of cholesterol by ITC [12]: not cholesterol

COC(=O)C1C(O)CC2(O)CC(O)CC(O)C(O)CCC(O)CC(O)CC(=O)OC(C)C(C)C(O)C(C)C=CC=CC=CC=CC=CC=CC=CC(OC3OC(C)C(O)C(N)C3O)CC1O2 (stereo not drawn) [C2′epiAmBME, C2′epiAmB C16 methyl ester]
MIC ([13]; A. fumigatus 91): 4 µM (≈ 3.75 µg/mL)
MIC ([13]; A. fumigatus 1100): 4 µM (≈ 3.75 µg/mL)

C[C@@H]1[C@H](O)[C@@H](C)/C=C/C=C/C=C/C=C/C=C/C=C/C=C/[C@H](O[C@@H]2O[C@H](C)[C@@H](O)[C@H](N)[C@H]2O)C[C@@H]2O[C@](O)(C[C@@H](O)C[C@@H](O)[C@H](O)CC[C@@H](O)C[C@@H](O)CC(=O)O[C@H]1C)C[C@H](O)[C@H]2C(=O)O [C2′epiAmB]
mortality ([6]; IV, mice, 128 mg/kg (highest dose tested)): survived
toxicity to mice ([6]; up to the highest dose tested): non-toxic
in vitro antifungal activity [14]: good activity
toxicity in rats ([7]; 17.5 mg/kg (highest tested dose)): no such toxicity
toxicity to rats ([7]; up to the highest dose tested): non-toxic
minimum toxic concentration (MTC) against primary hRECs [2]: > 80 µM
toxicity to primary hREC [2]: non-toxic
change in potency upon ergosterol pre-complexation (C. albicans [3]): same reduction in potency
antifungal potency [15]: good antifungal potency
resistance of strains to compound [16]: complete or nearly complete resistance
potency relative to AmB (less potent) (A. fumigatus; A. fumigatus AF91): > 32 times
potency relative to AmB (less potent) (A. fumigatus; A. fumigatus AF293, A1163, and ATC204305): 4 fold
cell killing activities (yeast; fungal vs human cells): kill fungal but not human cells
toxicity to human red blood cells (human red blood cells): non-toxic
fungal burden (C. albicans [17]; 16 mg/kg): outstanding reductions in fungal burden
efficacy (C. albicans [17]; deoxycholate complex, 1, 4, 8, or 16 mg/kg): dose-dependent efficacy
binding of ergosterol by ITC [11]: bind ergosterol
average potency relative to AmB (less potent) ([18]; average across all 40 strains): 5.6 fold
potency relative to AmB (less potent) ([18]; range over 40 Aspergillus clinical isolates): 2-16 times
binding of cholesterol by ITC [12]: not (detectably) cholesterol
MIC ([13]; A. fumigatus 91): > 64 µM
MIC ([13]; A. fumigatus 1100): 32 µM (≈ 29.6 µg/mL)
binding to ergosterol [5]: retained binding
binding to cholesterol [10]: no detectable binding
